In ChEMBL document CHEMBL4308841, “Synthesis, in vitro antiproliferative activity, and kinase inhibitory effects of pyrazole-containing diarylureas and diarylamides” (Eur J Med Chem, 2018):

Columns and labels:
[1] = test system: SK-MEL-2; test: Growth inhibition of human SK-MEL-2 cells assessed as cell growth at 10 uM incubated for 48 hrs by sulforhodamine B assay relative to control; assay type: functional; details: SK-MEL-2, 48 h, read-out: Activity
[2] = test system: COLO 205; test: Growth inhibition of human COLO205 cells incubated for 48 hrs by sulforhodamine B assay; assay type: functional, cell-based; details: COLO 205, 48 h
[3] = test system: SN12C; test: Growth inhibition of human SN12C cells incubated for 48 hrs by sulforhodamine B assay; assay type: functional, cell-based
[4] = test system: Hs-578T; test: Growth inhibition of human Hs578T cells incubated for 48 hrs by sulforhodamine B assay; assay type: functional, cell-based
[5] = test system: T47D; test: Growth inhibition of human T47D cells incubated for 48 hrs by sulforhodamine B assay; assay type: functional, cell-based
[6] = test system: CCRF-CEM; test: Growth inhibition of human CCRF-CEM cells assessed as cell growth at 0.01 uM incubated for 48 hrs by sulforhodamine B assay relative to control; assay type: functional; details: read-out: Activity
[7] = test system: SR; test: Growth inhibition of human SR cells assessed as cell growth at 0.01 uM incubated for 48 hrs by sulforhodamine B assay relative to control; assay type: functional; details: read-out: Activity
[8] = test system: SF-268; test: Growth inhibition of human SF268 cells assessed as cell growth at 0.01 uM incubated for 48 hrs by sulforhodamine B assay relative to control; assay type: functional; details: SF-268, 48 h, read-out: Activity
[9] = test system: SF-295; test: Growth inhibition of human SF295 cells assessed as cell growth at 0.01 uM incubated for 48 hrs by sulforhodamine B assay relative to control; assay type: functional; details: SF-295, 48 h, read-out: Activity
[10] = test system: LOX IMVI; test: Growth inhibition of human LOXIMVI cells assessed as cell growth at 0.01 uM incubated for 48 hrs by sulforhodamine B assay relative to control; assay type: functional; details: read-out: Activity
[11] = test system: SK-MEL-2; test: Growth inhibition of human SK-MEL-2 cells assessed as cell growth at 0.01 uM incubated for 48 hrs by sulforhodamine B assay relative to control; assay type: functional; details: SK-MEL-2, 48 h, read-out: Activity
[12] = test system: UACC-257; test: Growth inhibition of human UACC257 cells assessed as cell growth at 0.01 uM incubated for 48 hrs by sulforhodamine B assay relative to control; assay type: functional; details: UACC-257, 48 h, read-out: Activity
[13] = test system: A498; test: Growth inhibition of human A498 cells assessed as cell growth at 0.01 uM incubated for 48 hrs by sulforhodamine B assay relative to control; assay type: functional; details: A498, 48 h, read-out: Activity
[14] = test system: RXF 393; test: Growth inhibition of human RXF393 cells assessed as cell growth at 0.01 uM incubated for 48 hrs by sulforhodamine B assay relative to control; assay type: functional; details: RXF 393, 48 h, read-out: Activity
[15] = test system: A549; test: Growth inhibition of human A549/ATCC cells assessed as cell growth at 0.1 uM incubated for 48 hrs by sulforhodamine B assay relative to control; assay type: functional; details: A549, 48 h, read-out: Activity
[16] = test system: ACHN; test: Growth inhibition of human ACHN cells assessed as cell growth at 0.1 uM incubated for 48 hrs by sulforhodamine B assay relative to control; assay type: functional; details: read-out: Activity
[17] = test system: MDA-MB-231; test: Growth inhibition of human MDA-MB-231 cells assessed as cell growth at 0.1 uM incubated for 48 hrs by sulforhodamine B assay relative to control; assay type: functional; details: MDA-MB-231, 48 h, read-out: Activity
[18] = test system: BT-549; test: Growth inhibition of human BT549 cells assessed as cell growth at 0.1 uM incubated for 48 hrs by sulforhodamine B assay relative to control; assay type: functional; details: BT-549, 48 h, read-out: Activity
[19] = test system: OVCAR-3; test: Growth inhibition of human OVCAR3 cells assessed as cell growth at 1 uM incubated for 48 hrs by sulforhodamine B assay relative to control; assay type: functional; details: OVCAR-3, 48 h, read-out: Activity
[20] = test system: PC-3; test: Growth inhibition of human PC3 cells assessed as cell growth at 1 uM incubated for 48 hrs by sulforhodamine B assay relative to control; assay type: functional; details: PC-3, 48 h, read-out: Activity
[21] = test system: COLO 205; test: Growth inhibition of human COLO205 cells assessed as cell growth at 100 uM incubated for 48 hrs by sulforhodamine B assay relative to control; assay type: functional; details: COLO 205, 48 h, read-out: Activity
[22] = test system: SF-539; test: Growth inhibition of human SF539 cells assessed as cell growth at 100 uM incubated for 48 hrs by sulforhodamine B assay relative to control; assay type: functional; details: SF-539, 48 h, read-out: Activity
[23] = test system: Malme-3M; test: Growth inhibition of human MALME-3M cells assessed as cell growth at 100 uM incubated for 48 hrs by sulforhodamine B assay relative to control; assay type: functional; details: read-out: Activity
[24] = test system: SK-MEL-28; test: Growth inhibition of human SK-MEL-28 cells assessed as cell growth at 100 uM incubated for 48 hrs by sulforhodamine B assay relative to control; assay type: functional; details: SK-MEL-28, 48 h, read-out: Activity
[25] = test system: IGROV-1; test: Growth inhibition of human IGROV1 cells assessed as cell growth at 100 uM incubated for 48 hrs by sulforhodamine B assay relative to control; assay type: functional; details: IGROV-1, 48 h, read-out: Activity
[26] = test system: OVCAR-3; test: Growth inhibition of human OVCAR3 cells assessed as cell growth at 100 uM incubated for 48 hrs by sulforhodamine B assay relative to control; assay type: functional; details: OVCAR-3, 48 h, read-out: Activity
[27] = test system: OVCAR-5; test: Growth inhibition of human OVCAR5 cells assessed as cell growth at 100 uM incubated for 48 hrs by sulforhodamine B assay relative to control; assay type: functional; details: OVCAR-5, 48 h, read-out: Activity
[28] = test system: 786-0; test: Growth inhibition of human 786-0 cells assessed as cell growth at 100 uM incubated for 48 hrs by sulforhodamine B assay relative to control; assay type: functional; details: 786-0, 48 h, read-out: Activity
[29] = test system: UO-31; test: Growth inhibition of human UO31 cells assessed as cell growth at 100 uM incubated for 48 hrs by sulforhodamine B assay relative to control; assay type: functional; details: UO-31, 48 h, read-out: Activity
[30] = test system: MDA-MB-231; test: Growth inhibition of human MDA-MB-231 cells assessed as cell growth at 100 uM incubated for 48 hrs by sulforhodamine B assay relative to control; assay type: functional; details: MDA-MB-231, 48 h, read-out: Activity
[31] = test system: Hs-578T; test: Growth inhibition of human Hs578T cells assessed as cell growth at 100 uM incubated for 48 hrs by sulforhodamine B assay relative to control; assay type: functional; details: read-out: Activity
[32] = test system: T47D; test: Growth inhibition of human T47D cells assessed as cell growth at 100 uM incubated for 48 hrs by sulforhodamine B assay relative to control; assay type: functional; details: read-out: Activity
[33] = read-out: LC50 (the source's name)
[34] = read-out: pLC50 (the source's name) (converted)

O=C(Nc1cccc(-n2cc(-c3ccncc3)c(-c3cc(O)cc(Cl)c3)n2)c1)c1ccc(N2CCOCC2)c(C(F)(F)F)c1
growth at 10 µM [1]: 22.9%
GI50 ([2]; read-out: GI50): 1.75 µM
CC50 [2, 33]: > 100 µM
TGI ([2]; read-out: TGI): 64.5 µM
GI50 ([2]; read-out: pGI50 (converted)): 17.4 µM
CC50 [2, 34]: > 100 µM
TGI ([2]; read-out: pTGI (converted)): 64.6 µM
GI50 ([3]; read-out: GI50): 6.37 µM
LC50 ([3]; read-out: LC50): > 100 µM
TGI ([3]; read-out: TGI): > 100 µM
GI50 ([3]; read-out: pGI50 (converted)): 6.31 µM
LC50 ([3]; read-out: pLC50 (converted)): > 100 µM
TGI ([3]; read-out: pTGI (converted)): > 100 µM
GI50 ([4]; read-out: GI50): 2.94 µM
CC50 [4, 33]: > 100 µM
TGI ([4]; read-out: TGI): > 100 µM
GI50 ([4]; read-out: pGI50 (converted)): 2.95 µM
CC50 [4, 34]: > 100 µM
TGI ([4]; read-out: pTGI (converted)): > 100 µM
GI50 ([5]; read-out: GI50): 3.81 µM
CC50 [5, 33]: > 100 µM
TGI ([5]; read-out: TGI): > 100 µM
GI50 ([5]; read-out: pGI50 (converted)): 3.8 µM
CC50 [5, 34]: > 100 µM
TGI ([5]; read-out: pTGI (converted)): > 100 µM
growth at 0.01 µM [6]: 98%
growth at 0.01 µM [7]: 92%
growth at 0.01 µM [8]: 101%
growth at 0.01 µM [9]: 97%
growth at 0.01 µM [10]: 100%
growth at 0.01 µM [11]: 54%
growth at 0.01 µM [12]: 91%
growth at 0.01 µM [13]: 97%
growth at 0.01 µM [14]: 91%
growth at 0.1 µM [15]: 97%
growth at 0.1 µM [16]: 99%
growth at 0.1 µM [17]: 92%
growth at 0.1 µM [18]: 97%
growth at 1 µM [19]: 99%
growth at 1 µM [20]: 51%
growth at 100 µM [21]: -17%
growth at 100 µM [22]: -50%
growth at 100 µM [23]: -25%
growth at 100 µM [24]: -22%
growth at 100 µM [25]: 25%
growth at 100 µM [26]: 30%
growth at 100 µM [27]: -47%
growth at 100 µM [28]: -82%
growth at 100 µM [29]: -33%
growth at 100 µM [30]: -58%
growth at 100 µM [31]: 30%
growth at 100 µM [32]: 7%

O=C(Nc1cccc(-n2cc(-c3ccncc3)c(-c3cc(O)cc(Cl)c3)n2)c1)Nc1ccc(Cl)c(C(F)(F)F)c1
growth at 10 µM [1]: -38%
GI50 ([2]; read-out: GI50): 2.25 µM
CC50 [2, 33]: 15.9 µM
TGI ([2]; read-out: TGI): 51.7 µM
GI50 ([2]; read-out: pGI50 (converted)): 2.82 µM
CC50 [2, 34]: 19.1 µM
TGI ([2]; read-out: pTGI (converted)): 5.13 µM
GI50 ([3]; read-out: GI50): 3.44 µM
LC50 ([3]; read-out: LC50): > 100 µM
TGI ([3]; read-out: TGI): 17.2 µM
GI50 ([3]; read-out: pGI50 (converted)): 3.55 µM
LC50 ([3]; read-out: pLC50 (converted)): > 100 µM
TGI ([3]; read-out: pTGI (converted)): 17 µM
GI50 ([4]; read-out: GI50): 3.2 µM
CC50 [4, 33]: > 100 µM
TGI ([4]; read-out: TGI): > 100 µM
GI50 ([4]; read-out: pGI50 (converted)): 3.31 µM
CC50 [4, 34]: > 100 µM
TGI ([4]; read-out: pTGI (converted)): > 100 µM
GI50 ([5]; read-out: GI50): 2.44 µM
CC50 [5, 33]: 91.5 µM
TGI ([5]; read-out: TGI): 92.7 µM
GI50 ([5]; read-out: pGI50 (converted)): 2.45 µM
CC50 [5, 34]: 91.2 µM
TGI ([5]; read-out: pTGI (converted)): 9.33 µM
growth at 0.01 µM [6]: 97%
growth at 0.01 µM [7]: 105%
growth at 0.01 µM [8]: 95%
growth at 0.01 µM [9]: 58%
growth at 0.01 µM [10]: 90%
growth at 0.01 µM [11]: 99%
growth at 0.01 µM [12]: 90%
growth at 0.01 µM [13]: 58%
growth at 0.01 µM [14]: 93%
growth at 0.1 µM [15]: 100%
growth at 0.1 µM [16]: 93%
growth at 0.1 µM [17]: 105%
growth at 0.1 µM [18]: 95%
growth at 1 µM [19]: 91%
growth at 1 µM [20]: 83%
growth at 100 µM [21]: -77%
growth at 100 µM [22]: -50%
growth at 100 µM [23]: -91%
growth at 100 µM [24]: -89%
growth at 100 µM [25]: -41%
growth at 100 µM [26]: -1%
growth at 100 µM [27]: -55%
growth at 100 µM [28]: -50%
growth at 100 µM [29]: -73%
growth at 100 µM [30]: -38%
growth at 100 µM [31]: 1%
growth at 100 µM [32]: -52%
